Measurements taken from patent US11896704B2, “Compounds useful for the treatment and/or care of the skin, hair, nails and/or mucous membranes” (LUBRIZOL ADVANCED MATERIALS, INC., priority 2017, dated 2024).

Key:
Type in all cases: cell-based, Human
Conditions in all cases: 0.5 mg/ml
[1] = test system: PER3 (period circadian clock 3); test: Clock gene expression in synchronized HEKa, real time PCR: PER3
Protocol: (§1) In Vitro Study of Clock Genes Expression in Synchronized Human Epidermal Keratinocytes from Adult (HEKa) Using Real Time PCR Arrays. HEKa cells (Life Technologies) are seeded at 3.0×10^5 cells/well in 12-well plates and incubated in culture medium, Keratinocyte growth medium supplemented with Mix C39016-CaCl2 solution (Promocell). For synchronization, cells were subjected to two alternative cycles of 12 hours each at 37° C. in 5% CO2 humidified air (day mode) and 33° C. in 5% CO2 humidified air (night mode). 12 hours after starting synchronization, cells are incubated with the synthetic peptide […] (PEP-1, H-[SEQ ID. NO. 2]-NH2) at 0.5 mg/ml in culture medium. Cells treated with medium alone are used as basal condition. At the end of synchronization, cell lysates are collected at two different times: 7:30 hour (early morning point) and 11:30 hour (midday point). […] After RNA elution, quantification and analysis of purity of RNA samples are performed with a nanodrop (Thermo). […] SYBR Green binds to double-stranded DNA molecules and emits fluorescence which is quantified, and the fluorescence intensity is proportional to the amount of the product in the PCR reaction. […] Fold change relative to the expression of the sample genes and reference genes is calculated using normalized expression (ΔΔ(Ct)) method using CFX Manager Software (BioRad).

[2] = test system: PER3 (period circadian clock 3); test: PER genes expression in young and old HEKa, real time PCR: PER3
Protocol: In Vitro Study of PER Genes Expression in Young and Old Human Epidermal Keratinocytes (HEKa) Using Real Time PCR Arrays. Human Epidermal Keratinocytes, (HEKa) cells (Life Technologies) from donor one and donor two are seeded at 3.0×10^5 cells/well in 12-well plates and incubated in culture medium, Keratinocyte growth medium supplemented with Mix C39016-CaCl2 solution (Promocell). For synchronization, cells were subjected to two alternative cycles of 12 hours each at 37° C. in 5% CO2 humidified air (day mode) and 33° C. in 5% CO2 humidified air (night mode). 12 hours after starting synchronization, cells are incubated with the synthetic peptide […] (PEP-1, H-[SEQ ID. NO. 2]-NH2) at 0.5 mg/ml in culture medium. Cells treated with medium alone are used as basal condition. At the end of synchronization, cell lysates are collected at 7:30 hour (early morning point). […] After RNA elution, quantification and analysis of purity of RNA samples are performed with a nanodrop (Thermo). […] SYBR Green binds to double-stranded DNA molecules and emits fluorescence which is quantified, and the fluorescence intensity is proportional to the amount of the product in the PCR reaction. […] Fold change relative to the expression of the sample genes and reference genes is calculated using normalized expression (ΔΔ(Ct)) method using CFX Manager SoftwareTM (BioRad).

[3] = test system: CRY2 (cryptochrome circadian clock 2); test: Clock gene expression in synchronized HEKa, real time PCR: CRY2
Protocol: as §1

H-Phe-Trp-Met-Lys-Arg-Lys-Arg-Val-Pro-NH2 (H-FWMKRKRVP-NH2) [PEP-1]
Fold induction respect to Basal condition at 7:30 h (%) [1]: 182.5%
Fold induction at 7:30 h respect to Basal condition (%) ([2]; PER3, HEKa from donor one): 182.5%
Fold induction at 7:30 h respect to Basal condition (%) ([2]; PER3, HEKa from donor two): 249.0%
Fold induction respect to Basal condition at 7:30 h (%) [3]: 132.5%
